Test results taken from PubChem BioAssay (NCI).
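Here, GI50 denotes the concentration required for 50% inhibition of growth. Definition used: TGI = concentration required for complete inhibition of growth.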

What was measured:
Assay in all cases: growth of human tumour cells (NCI), 384-well format
NCI-H23 lung = tested on: NCI-H23 lung
HOP-62 NSCLC = tested on: HOP-62 NSCLC
SK-MEL-28 melanoma = tested on: SK-MEL-28 melanoma
PC-3 prostate = tested on: PC-3 prostate
SNB-75 CNS = tested on: SNB-75 CNS
HCC-2998 colon = tested on: HCC-2998 colon
HL-60(TB) leukemia = tested on: HL-60(TB) leukemia
OVCAR-5 ovarian = tested on: OVCAR-5 ovarian
OVCAR-3 ovarian = tested on: OVCAR-3 ovarian
MDA-MB-435 melanoma = tested on: MDA-MB-435 melanoma
MOLT-4 leukemia = tested on: MOLT-4 leukemia
MDA-MB-468 breast = tested on: MDA-MB-468 breast
SF-539 CNS = tested on: SF-539 CNS
COLO 205 colon = tested on: COLO 205 colon
A498 renal = tested on: A498 renal
SF-295 CNS = tested on: SF-295 CNS
HCT-15 colon = tested on: HCT-15 colon
IGROV1 ovarian = tested on: IGROV1 ovarian
SNB-19 CNS = tested on: SNB-19 CNS
UACC-257 melanoma = tested on: UACC-257 melanoma
DU-145 prostate = tested on: DU-145 prostate
RXF 393 renal = tested on: RXF 393 renal
CCRF-CEM leukemia = tested on: CCRF-CEM leukemia
A549 NSCLC = tested on: A549 NSCLC
MALME-3M melanoma = tested on: MALME-3M melanoma
ACHN renal = tested on: ACHN renal
CAKI-1 renal = tested on: CAKI-1 renal
LOX IMVI melanoma = tested on: LOX IMVI melanoma
SK-OV-3 ovarian = tested on: SK-OV-3 ovarian
HS 578T breast = tested on: HS 578T breast
NCI/ADR-RES ovarian = tested on: NCI/ADR-RES ovarian
NCI-H322M lung = tested on: NCI-H322M lung
T-47D breast = tested on: T-47D breast
MCF7 breast = tested on: MCF7 breast
NCI-H226 lung = tested on: NCI-H226 lung
SW-620 colon = tested on: SW-620 colon
SF-268 CNS = tested on: SF-268 CNS
KM12 colon = tested on: KM12 colon
UO-31 renal = tested on: UO-31 renal
RPMI-8226 leukemia = tested on: RPMI-8226 leukemia
EKVX NSCLC = tested on: EKVX NSCLC
TK-10 renal = tested on: TK-10 renal
NCI-H522 lung = tested on: NCI-H522 lung
SR leukemia = tested on: SR leukemia
HOP-92 NSCLC = tested on: HOP-92 NSCLC
HCT-116 colon = tested on: HCT-116 colon
BT-549 breast = tested on: BT-549 breast
HT29 colon = tested on: HT29 colon
SK-MEL-5 melanoma = tested on: SK-MEL-5 melanoma
OVCAR-4 ovarian = tested on: OVCAR-4 ovarian
SN12C renal = tested on: SN12C renal
M14 melanoma = tested on: M14 melanoma
U251 glioblastoma = tested on: U251 glioblastoma
NCI-H460 NSCLC = tested on: NCI-H460 NSCLC
OVCAR-8 ovarian = tested on: OVCAR-8 ovarian
UACC-62 melanoma = tested on: UACC-62 melanoma

CC(C)(C)c1cc(NC(=O)Nc2ccc(-c3cn4c(n3)sc3cc(OCCN5CCOCC5)ccc34)cc2)no1
GI50 (NCI-H23 lung): 684 nM | TGI (NCI-H23 lung): > 100000 nM | GI50 (HOP-62 NSCLC): 1270 nM | TGI (HOP-62 NSCLC): 3540 nM | GI50 (SK-MEL-28 melanoma): 12400 nM | TGI (SK-MEL-28 melanoma): > 100000 nM | GI50 (PC-3 prostate): 1630 nM | TGI (PC-3 prostate): > 100000 nM | GI50 (SNB-75 CNS): 1410 nM | TGI (SNB-75 CNS): 4700 nM | GI50 (HCC-2998 colon): > 100000 nM | TGI (HCC-2998 colon): > 100000 nM | GI50 (HL-60(TB) leukemia): > 100000 nM | TGI (HL-60(TB) leukemia): > 100000 nM | GI50 (OVCAR-5 ovarian): > 100000 nM | TGI (OVCAR-5 ovarian): > 100000 nM | GI50 (OVCAR-3 ovarian): 3030 nM | TGI (OVCAR-3 ovarian): > 100000 nM | GI50 (MDA-MB-435 melanoma): > 100000 nM | TGI (MDA-MB-435 melanoma): > 100000 nM | GI50 (MOLT-4 leukemia): 412 nM | TGI (MOLT-4 leukemia): > 100000 nM | GI50 (MDA-MB-468 breast): 3170 nM | TGI (MDA-MB-468 breast): 8590 nM | GI50 (SF-539 CNS): 1080 nM | TGI (SF-539 CNS): 3170 nM | GI50 (COLO 205 colon): > 100000 nM | TGI (COLO 205 colon): > 100000 nM | GI50 (A498 renal): 2110 nM | TGI (A498 renal): 6480 nM | GI50 (SF-295 CNS): 1120 nM | TGI (SF-295 CNS): > 100000 nM | GI50 (HCT-15 colon): 4540 nM | TGI (HCT-15 colon): > 100000 nM | GI50 (IGROV1 ovarian): 4980 nM | TGI (IGROV1 ovarian): > 100000 nM | GI50 (SNB-19 CNS): 3370 nM | TGI (SNB-19 CNS): > 100000 nM | GI50 (UACC-257 melanoma): 4090 nM | TGI (UACC-257 melanoma): > 100000 nM | GI50 (DU-145 prostate): > 100000 nM | TGI (DU-145 prostate): > 100000 nM | GI50 (RXF 393 renal): 184 nM | TGI (RXF 393 renal): 571 nM | GI50 (CCRF-CEM leukemia): 459 nM | TGI (CCRF-CEM leukemia): > 100000 nM | GI50 (A549 NSCLC): 4970 nM | TGI (A549 NSCLC): > 100000 nM | GI50 (MALME-3M melanoma): 1890 nM | TGI (MALME-3M melanoma): > 100000 nM | GI50 (ACHN renal): 7130 nM | TGI (ACHN renal): > 100000 nM | GI50 (CAKI-1 renal): 3680 nM | TGI (CAKI-1 renal): > 100000 nM | GI50 (LOX IMVI melanoma): 2380 nM | TGI (LOX IMVI melanoma): > 100000 nM | GI50 (SK-OV-3 ovarian): 1670 nM | TGI (SK-OV-3 ovarian): > 100000 nM | GI50 (HS 578T breast): 461 nM | TGI (HS 578T breast): 3740 nM | GI50 (NCI/ADR-RES ovarian): > 100000 nM | TGI (NCI/ADR-RES ovarian): > 100000 nM | GI50 (NCI-H322M lung): 2990 nM | TGI (NCI-H322M lung): > 100000 nM | GI50 (T-47D breast): 94 nM | TGI (T-47D breast): 450 nM | GI50 (MCF7 breast): 1040 nM | TGI (MCF7 breast): > 100000 nM | GI50 (NCI-H226 lung): 3820 nM | TGI (NCI-H226 lung): > 100000 nM | GI50 (SW-620 colon): > 100000 nM | TGI (SW-620 colon): > 100000 nM | GI50 (SF-268 CNS): 584 nM | TGI (SF-268 CNS): 2550 nM | GI50 (KM12 colon): 559 nM | TGI (KM12 colon): > 100000 nM | GI50 (UO-31 renal): > 100000 nM | TGI (UO-31 renal): > 100000 nM

CCc1cnn2c(NCc3ccc[n+]([O-])c3)cc(N3CCCC[C@H]3CCO)nc12
GI50 (NCI-H23 lung): < 10 nM | TGI (NCI-H23 lung): < 10 nM | GI50 (RPMI-8226 leukemia): < 10 nM | TGI (RPMI-8226 leukemia): < 10 nM | GI50 (HOP-62 NSCLC): < 10 nM | TGI (HOP-62 NSCLC): < 10 nM | GI50 (SK-MEL-28 melanoma): < 10 nM | TGI (SK-MEL-28 melanoma): < 10 nM | GI50 (EKVX NSCLC): < 10 nM | TGI (EKVX NSCLC): < 10 nM | GI50 (PC-3 prostate): < 10 nM | TGI (PC-3 prostate): < 10 nM | GI50 (SNB-75 CNS): < 10 nM | TGI (SNB-75 CNS): < 10 nM | GI50 (HCC-2998 colon): < 10 nM | TGI (HCC-2998 colon): < 10 nM | GI50 (HL-60(TB) leukemia): < 10 nM | TGI (HL-60(TB) leukemia): < 10 nM | GI50 (OVCAR-5 ovarian): < 10 nM | TGI (OVCAR-5 ovarian): < 10 nM | GI50 (OVCAR-3 ovarian): < 10 nM | TGI (OVCAR-3 ovarian): < 10 nM | GI50 (MDA-MB-435 melanoma): < 10 nM | TGI (MDA-MB-435 melanoma): < 10 nM | GI50 (TK-10 renal): < 10 nM | TGI (TK-10 renal): < 10 nM | GI50 (MOLT-4 leukemia): < 10 nM | TGI (MOLT-4 leukemia): < 10 nM | GI50 (MDA-MB-468 breast): < 10 nM | TGI (MDA-MB-468 breast): < 10 nM | GI50 (NCI-H522 lung): < 10 nM | TGI (NCI-H522 lung): < 10 nM | GI50 (SR leukemia): < 10 nM | TGI (SR leukemia): < 10 nM | GI50 (SF-539 CNS): < 10 nM | TGI (SF-539 CNS): < 10 nM | GI50 (COLO 205 colon): < 10 nM | TGI (COLO 205 colon): < 10 nM | GI50 (A498 renal): < 10 nM | TGI (A498 renal): < 10 nM | GI50 (HOP-92 NSCLC): < 10 nM | TGI (HOP-92 NSCLC): > 100000 nM | GI50 (HCT-116 colon): < 10 nM | TGI (HCT-116 colon): > 100000 nM | GI50 (SF-295 CNS): < 10 nM | TGI (SF-295 CNS): > 100000 nM | GI50 (HCT-15 colon): < 10 nM | TGI (HCT-15 colon): 21.8 nM | GI50 (IGROV1 ovarian): < 10 nM | TGI (IGROV1 ovarian): < 10 nM | GI50 (SNB-19 CNS): < 10 nM | TGI (SNB-19 CNS): < 10 nM | GI50 (BT-549 breast): < 10 nM | TGI (BT-549 breast): < 10 nM | GI50 (HT29 colon): < 10 nM | TGI (HT29 colon): < 10 nM | GI50 (UACC-257 melanoma): < 10 nM | TGI (UACC-257 melanoma): < 10 nM | GI50 (DU-145 prostate): < 10 nM | TGI (DU-145 prostate): < 10 nM | GI50 (RXF 393 renal): < 10 nM | TGI (RXF 393 renal): < 10 nM | GI50 (A549 NSCLC): < 10 nM | TGI (A549 NSCLC): > 100000 nM | GI50 (MALME-3M melanoma): < 10 nM | TGI (MALME-3M melanoma): < 10 nM | GI50 (SK-MEL-5 melanoma): < 10 nM | TGI (SK-MEL-5 melanoma): < 10 nM | GI50 (ACHN renal): < 10 nM | TGI (ACHN renal): < 10 nM | GI50 (CAKI-1 renal): < 10 nM | TGI (CAKI-1 renal): > 100000 nM | GI50 (LOX IMVI melanoma): < 10 nM | TGI (LOX IMVI melanoma): < 10 nM | GI50 (OVCAR-4 ovarian): < 10 nM | TGI (OVCAR-4 ovarian): < 10 nM | GI50 (SN12C renal): < 10 nM | TGI (SN12C renal): < 10 nM | GI50 (SK-OV-3 ovarian): < 10 nM | TGI (SK-OV-3 ovarian): > 100000 nM | GI50 (HS 578T breast): < 10 nM | TGI (HS 578T breast): < 10 nM | GI50 (NCI/ADR-RES ovarian): 41.3 nM | TGI (NCI/ADR-RES ovarian): 250 nM | GI50 (M14 melanoma): < 10 nM | TGI (M14 melanoma): < 10 nM | GI50 (U251 glioblastoma): < 10 nM | TGI (U251 glioblastoma): < 10 nM | GI50 (NCI-H322M lung): < 10 nM | TGI (NCI-H322M lung): < 10 nM | GI50 (T-47D breast): < 10 nM | TGI (T-47D breast): > 100000 nM | GI50 (MCF7 breast): < 10 nM | TGI (MCF7 breast): > 100000 nM | GI50 (NCI-H226 lung): < 10 nM | TGI (NCI-H226 lung): < 10 nM | GI50 (SF-268 CNS): < 10 nM | TGI (SF-268 CNS): < 10 nM | GI50 (KM12 colon): < 10 nM | TGI (KM12 colon): > 100000 nM | GI50 (NCI-H460 NSCLC): < 10 nM | TGI (NCI-H460 NSCLC): < 10 nM | GI50 (OVCAR-8 ovarian): < 10 nM | TGI (OVCAR-8 ovarian): < 10 nM | GI50 (UACC-62 melanoma): < 10 nM | TGI (UACC-62 melanoma): < 10 nM
